Tests used:
[1] = system: Enveloped viruses, such as HSV-1, VSV and visna virus; details: more active than the free acid; cited from earlier work
[2] = system: Staphylococcus aureus (ATCC 25923); assay: Agar petri dish test, plates wetted with 20 μl formulation, read after 24 hours; details: ethanol 5% in mPEG 95% (control)
Method: Formulations according to the invention were tested towards three bacterial strains: Staphylococcus aureus (ATCC 25923), Streptococcus pneumoniae (ATCC 49619), Haemophilus influenza (NCTC 8468). The bacteria were distributed in a thin layer across a petri dish with agar. Two plates were wetted with 20 μl of each formulation. The bacteria were allowed to grow at 37° C. for 24 hours. H. influenzae and S. pneumoniae were grown under CO2, but S. aureus was grown in normal atmosphere.
Readings of results were carried out 24 hours later.

[3] = system: Streptococcus pneumoniae (ATCC 49619); assay: as above; details: ethanol 5% in mPEG 95% (control)
[4] = system: Haemophilus influenza (NCTC 8468); assay: as above; assay type: cell-based; details: ethanol 5% in mPEG 95% (control)

Structure (SMILES) | virucidal activity relative to the corresponding free fatty acid (capric, lauric acid) [1] [fold] | effect of ethanol alone against Staphylococcus aureus [2] | effect of ethanol alone against Streptococcus pneumoniae [3] | effect of ethanol alone against Haemophilus influenza [4]
CCCCCCCCCCCC(=O)OCC(O)CO (centres unmarked) [lauric acid 1-monoglyceride] | 10 |  |  | 
CCO [ethanol] |  | essentially no effect | essentially no effect | essentially no effect
CCCCCCCCCC(=O)OCC(O)CO (centres unmarked) [Capric acid 1-monoglyceride, capric acid 1-monoglyceride] | 10 |  |  | 

Reference: patent publication US20230107742A1, “SYNERGISTIC EFFECTS, AUGMENTING ANTIMICROBAL EFFECTS OF LIPIDS” (CAPRETTO EHF., priority 2016, published 2023)
